In data set [1] the test system is NRAS mutant melanoma cells. As to the kind of experiment: Telomere dysfunction-induced foci (TIF) assay. The format is cell-based, human. The settings on record: WM3000 transduced with TERT shRNA; NAC 1 mM for 7 days. Here is the method:
Supplementary FIGS. 6a-b. […] NRAS mutant melanoma cells WM3000 were transduced with TERT shRNA and treated with NAC […] for 7 days. (Supplementary FIG. 6a) TIFs were assessed by indirect immunofluorescence combined with fluorescence in situ hybridization (FISH). Representative images are shown (scale bar=10 μm). (Supplementary FIG. 6b) Quantification of TIF positive cells. Cells were scored as TIF positive when three or more y-H2AS foci (green) were co-localizing with telomere foci (red). Data represent average of thirteen fields imaged +/−SD.
Supplementary FIGS. 8a-d. NRAS mutant melanoma cells are sensitive to the telomere uncapping agent 6-thio-dG. NRAS^mut melanoma cells were treated with 6-thio-dG for 6, 12 or 18 days. (Supplementary FIG. 8a) Relative cell number was assessed by Cyrstal Violet assay and calculated relative to DMSO-treated cells. […] (Supplementary FIG. 8c) NRAS^mut cells were treated with 6-thio-dG for 7 days and telomere-induced foci (TIF) were determined by indirect immunofluorescence combined with fluorescence in situ hybridization (FISH). […] (Supplementary FIG. 8d) Quantification of TIF assay. Cells were scored as TIF-positive when four or more γ-H2AX foci (green) were co-localizing with telomere foci (red). […] P values were calculated by unpaired Student's t-test.
DNA damage and telomere dysfunction assay (TIF). […] Mean fluorescence staining was quantified by flow cytometry. […]

Data set [2] relates to NRAS mutant melanoma spheroids. As to the kind of experiment: 3D collagen-embedded melanoma spheroids, live/dead staining. In kind it is cell-based, human. The settings on record: 6-thio-dG (5 μM) and Ganetespib (5 μM); day 7. Here is the method:
(FIG. 6a) Collagen-embedded melanoma spheroids were treated with DMSO, 6-thio-dG (5 μM) and Gam (5 μM) as in FIGS. 4a-c. On day 7, spheroids were stained with Calcein AM (live cells;
green) and EtBr (dead cells; red) and imaged using an inverted microscope (4×; scale bar=250 μm). Representative merged images from three independent experiments are shown. (FIGS. 6b-d) NRAS mutant M93-047 tumor bearing mice were treated with vehicle control, 6-thio-dG (2.5 mg/kg; ip qd), Gam (12.5 mg/kg; ip qod), or the combination of the two drugs for the indicated days (n=7 mice/group). (FIG. 6b) Average tumor volume over time±SEM is represented. (FIG. 6c) Average tumor weight±SEM after 14 days of treatment. P values were calculated using unpaired Student's t-test. * p<0.05, **p<0.01, ***p<0.005, when comparing vehicle control vs. combination treatment groups. […] Kaplan Meier survival curves of mice treated for 14 days. p-values were calculated by Mantel-Cox logrank test; * p<0.05, **p<0.01, ***p<0.005. (FIG. 6e) Animal weight (grams) before treatment (start of TX) and at the end of the study (End of TX) was assessed and recorded for every mouse enrolled in the study. […] Statistical significance was assessed by unpaired Student's t-test.
Supplementary FIGS. 10a-b. […] Percent cell death was determined by flow cytometry following staining of cells with Annexin V and Propidium iodide. […]

Data set [3] relates to NRAS mutant melanoma cells. Description: Cell death by flow cytometry (PSVue or Annexin V/PI). In kind it is cell-based. The settings on record: TERT shRNA 7 dpi; 5 μM Gamitrinib for 48 h. For orientation: Flow cytometry measures light scatter and fluorescence of single cells or particles in a stream.
Procedure: (FIG. 2d) NRASmut melanoma cells and non-transformed human fibroblasts were treated with 1 or 5 μM 6-thio-dG for 7 or 14 days. Cell death was assessed by PSVUe staining. Percent of apoptotic cells is shown. […] (FIGS. 2f-g) Cells were treated with 1 μM 6-thio-dG for 7 days. […] Data represent average from three independent experiments±SEM. *p<0.05; **p<0.01; ***p<0.005 in unpaired Student's t-test.
(FIG. 3f) SOD2 was silenced using shRNA. Transduced M93-047 cells were treated with DMSO or 1 μM of 6-thio-dG and cell death was assessed by Annexin V/PI straining. (FIG. 3g) M93-047 cells were transduced with a SOD2 lentiviral construct or empty vector control (pLX304). Transduced cells were treated with increasing doses (1, 2.5 and 5 μM) of 6-thio-dG for 7 days and cell death was assessed. Data represent average from three independent experiments±SEM. *p<0.05; **p<0.01; ***p<0.005 in unpaired Student's t-test.
(FIG. 4a) NRASmut melanoma cells transduced with TERT shRNA were treated 7 days post infection with 5 μM Gamitrinib (Gam) for 48 h. Cell death was assessed by Annexin V and PI staining. (FIG. 4b) NRASmut melanoma cells and non-transformed fibroblasts were treated with 1 μM 6-thio-dG for 5 days. At day 5, culture medium was replaced and cells treated with 1 μM 6-thio-dG plus 5 μM Gam for two more days. Cells were stained with Annexin V and PI and percent cell death was determined by flow cytometry. […] Data represent average of three independent experiments ±SEM. P values were calculated using unpaired Student's t-test; * p<0.05; ***p<0.005.
(Supplementary FIG. 10a) NRASmut melanoma cells were treated with 6-thio-dG (1 μ) for 7 days total. At day 5, culture medium was replaced and cells were treated with 1 μM 6-thio-dG plus 1 mM Phenformin for two more days. Percent cell death was determined by flow cytometry following staining of cells with Annexin V and Propidium iodide. Data represent average of three independent experiments +/−SEM. *p<0.05 in unpaired Student's t-test.
Data set [4] concerns NRAS-WT/BRAF-WT melanoma cells. As to the kind of experiment: Cell death, Annexin V/PI. The format is cell-based, human. Conditions: single agents or combination; 1 μM 6-thio-dG, 5 μM Gam.
In data set [5] the test system is NRAS-WT/BRAF-mut melanoma cells. Description: Cell death, Annexin V/PI. In kind it is cell-based, human.
A further data set has as its system NRAS mutant SKNAS cells. Description: Cell death, Annexin V/PI. Conditions: single agents or combination; 1 μM 6-thio-dG, 5 μM Gam. The format is cell-based, human.
Another data set deals with KRAS mutant HCT116 cells. Description: Cell death, Annexin V/PI. In kind it is cell-based, human. Conditions: 1 μM 6-thio-dG, 5 μM Gam.
For a further data set, the system named is KRAS mutant A549 cells. As to the kind of experiment: Cell death, Annexin V/PI. The format is cell-based, human. The settings on record: 1 μM 6-thio-dG, 5 μM Gam.
For the next data set, the system named is SOD2. Conditions: cited from earlier work.
The next data set has as its system NRAS mutant cells. The settings on record: cited from earlier work.
For the next data set, the system named is BRAF-mutant melanoma. The settings on record: cited from earlier work.

Entries after “also recorded” stand apart in the source; their conditions may differ.

As to `CC(=O)N[C@@H](CS)C(=O)O` [NAC, N-acetyl-L-cysteine], the “number of TIF in TERT depleted cells” value in data set [1] was “attenuates TIFs; also recorded: attenuated the number of TIF”.
As to `CC(C)c1cc(-c2n[nH]c(=O)n2-c2ccc3c(ccn3C)c2)c(O)cc1O` [ganetespib], in [2], the “enhancement of 6-thio-dG efficacy in spheroids” value was “did not substantially enhance the efficacy”.
Take Gamitrinib [reference compound]: the “cytotoxic effects in TERT depleted cells” value in [3] is given as “enhanced the cytotoxic effects”. For the same compound, the cell death result in data set [4] was “did not induce cell death”; in data set [5] (Gamitrinib alone, 5 μM), 75-80%; in the data set on NRAS mutant SKNAS cells, “triggered significant death”; with KRAS mutant HCT116 cells it was “did not induce substantial death”; in the data set with KRAS mutant A549 cells, “did not induce substantial death”. Moreover, in [5] (1 μM 6-thio-dG, 5 μM Gam), the “cell death (in words)” value is listed as “highly sensitive”. Moreover, the SOD2 levels result in the data set with SOD2 is “downregulate SOD2 levels”. Also, in the data set with NRAS mutant cells, the “anti-cancer activity as a single agent” value is “limited activity”. Also, the anti-cancer efficacy result in the data set on BRAF-mutant melanoma is recorded as “efficacy”.

These data come from patent publication US20210113602A1, “USE OF 6-THIO-2'-DEOXYGUANOSINE (6-THIO-dG) TO TREAT MELANOMA” (The Board of Regents of the University of Texas System, priority 2018, published 2021).
